Laboratory results taken from patent US9556159B2, “Renin inhibitor” (MITSUBISHI TANABE PHARMA CORPORATION, priority 2012, dated 2017).

Biological target: T1, Recombinant human renin (Homo sapiens, UniProt P00797)
T1 sequence (P00797 67-406): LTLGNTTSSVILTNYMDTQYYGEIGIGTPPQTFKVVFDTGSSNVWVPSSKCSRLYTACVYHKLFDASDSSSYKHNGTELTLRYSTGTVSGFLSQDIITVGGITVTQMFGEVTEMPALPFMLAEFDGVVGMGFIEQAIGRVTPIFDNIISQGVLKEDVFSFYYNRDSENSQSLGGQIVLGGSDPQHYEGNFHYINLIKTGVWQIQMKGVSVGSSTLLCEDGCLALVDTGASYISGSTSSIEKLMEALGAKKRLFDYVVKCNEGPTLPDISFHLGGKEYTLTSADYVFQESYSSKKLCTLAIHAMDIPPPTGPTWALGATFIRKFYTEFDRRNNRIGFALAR
Assay: Inhibitory activity against human renin (fluorogenic peptide substrate)
Format: biochemical
Conditions: 37° C. for 1 hour, read-out: IC50
Experimental: Inhibitory Activity Against Human Renin
A substrate of synthetic peptide (Nma-KHPFH LVIHK(Dnp)-NH2) and test compound were mixed, and fluorescence intensity was assayed using a fluorophotometer before starting an enzymatic reaction (exciting wavelength: 340 nm, measuring wavelength: 460 nm). Recombinant human renin was added and the mixture was incubated at 37° C. for 1 hour, and the fluorescence intensity was measured after the reaction using a fluorophotometer (exciting wavelength: 340 nm, measuring wavelength: 460 nm).

| IC50 [nM] | SMILES |
| --- | --- |
| 8.2 | COC(=O)NCCCc1cc([C@@H](C)N(C(=O)[C@H]2CNCCO2)C2CC2)cc(C)n1 [Example 97] |
| 2.1 | COCCCCn1cc([C@@H](C)N(C(=O)[C@H]2CNCCO2)C2CC2)c2cnc(C)nc21 [Example 103] |
| 0.7 | COC(=O)NCCCn1nc([C@@H](C)N(C(=O)[C@H]2CNCCO2)C2CC2)c2ccc(C(F)(F)F)nc21 [Example 72] |
| 1 | CCc1ccc2c([C@@H](C)N(C(=O)[C@H]3CNCCO3)C3CC3)nn(CCCNC(=O)OC)c2n1 [Example 89] |
| 2.5 | CCOc1ccnc2c([C@@H](C)N(C(=O)[C@H]3CNCCO3)C3CC3)cn(CCCCOC)c12 [Example 101] |
| 1.9 | COC(=O)NCCCc1cc(F)cc([C@@H](C)N(C(=O)[C@H]2CNCCO2)C2CC2)c1 [Example 92] |
| 2.6 | COCCCc1nn(C)c2ccc([C@@H](C)N(C(=O)[C@H]3CNCCO3)C3CC3)cc12 [Example 15] |
| 0.5 | COC(=O)NCCCn1nc([C@@H](C)N(C(=O)[C@H]2CNCCO2)C2CC2)c2ccc(C3CC3)nc21 [Example 82] |
| 8.2 | COC(=O)NCCOc1cc([C@@H](C)N(C(=O)[C@H]2CNCCO2)C2CC2)nc2c1CCCC2 [Example 104] |
| 1.1 | COCCCCn1cc([C@@H](C)N(C(=O)[C@H]2CNCCO2)C2CC2)c2nccc(CCOC)c21 [Example 86] |
| 0.9 | CCc1ccnc2c([C@@H](C)N(C(=O)[C@H]3CNCCO3)C3CC3)cn(CCCCOC)c12 [Example 79] |
| 0.6 | COC(=O)NCCCn1nc([C@@H](C)N(C(=O)[C@H]2CNCCO2)C2CC2)c2cccc(F)c21 [Example 76] |
| 3.4 | COCCCc1nn(C)c2ccc([C@@H](C)N(C(=O)[C@H]3CNCCO3)C3CC3)cc12 [Example 26] |

Same assay, conditions: 50% inhibitory concentration (IC50) against human renin, 37° C. for 1 hour

| SMILES | IC50 [nM] |
| --- | --- |
| COC[C@@H]1CNC[C@H](C(=O)N(C2CC2)[C@H](C)c2nc(CCCNC(=O)OC)c(-c3cccc(Cl)c3)s2)O1 [Example 378] | 3.5 |
| COC(=O)NCCCc1cc(C(C)N(C(=O)[C@H]2CNCCO2)C2CC2)sc1C(C)C(F)(F)F (some centres unmarked) [Example 405] | 3.9 |
| COC[C@@H]1CNC[C@H](C(=O)N(C2CC2)[C@H](C)c2cc(OC)c3ccccc3n2)O1 [Example 201] | 4.1 |
| CCCCCc1cc([C@@H](C)N(C(=O)[C@H]2CNC[C@@H](C)O2)C2CC2)sc1-c1ccccc1-c1nn[nH]n1 [Example 294] | 6 |
| CCn1nc([C@@H](C)N(C(=O)[C@H]2CNCCO2)C2CC2)cc1CCCNC(=O)OC [Example 209] | 2.1 |
| COC(=O)NCCCc1cc([C@@H](C)N(C(=O)[C@H]2CNCCO2)C2CC2)cc(N(C)S(C)(=O)=O)n1 [Example 362] | 5 |
| COC(=O)NCCCn1cc([C@@H](C)N(C(=O)[C@H]2CNCCO2)C2CC2)c2cnc(C)cc21 [Example 135] | 6.3 |
| CCc1cn(CCCOC)c2cc([C@@H](C)N(C(=O)[C@H]3CNCCO3)C3CC3)nc(C#N)c12 [Example 150] | 2.6 |
| Cc1nc([C@@H](C)N(C(=O)[C@H]2CNCCO2)C2CC2)cc2c1ccn2Cc1ccccc1 [Example 148] | 5.1 |
| COC(=O)NCCCc1cc(C(C)N(C(=O)[C@H]2CNCCO2)C2CC2)sc1C(C)C (some centres unmarked) [Example 418] | 3.9 |
| COC(=O)NCCCc1cc([C@@H](C)N(C(=O)[C@H]2CNCCO2)C2CC2)ncc1OC [Example 121] | 5.4 |
| C[C@H](c1cn(Cc2cccc(F)c2)c(-c2ccccc2)n1)N(C(=O)[C@H]1CNCCO1)C1CC1 [Example 214] | 2.8 |
| COC(=O)NCCCc1cc([C@H](C)N(C(=O)[C@H]2CNCCO2)C2CC2)sc1-c1ccnn1C [Example 427] | 3.5 |
| COC(=O)NCCCc1sc([C@@H](C)N(C(=O)[C@H]2CNCCO2)C2CC2)cc1-c1ccc(F)cc1 [Example 428] | 8.1 |

Other lines, results leading:

| IC50 [nM] | SMILES |
| --- | --- |
| 1.2 | COC(=O)NCCCc1cc([C@@H](C)N(C(=O)[C@H]2CNCCO2)C2CC2)nn1-c1ccc(C)cc1 [Example 231] |
| 0.2 | COC(=O)NCC(F)Cn1nc([C@@H](C)N(C(=O)[C@H]2CNCCO2)C2CC2)cc1-c1ccccc1 (some centres unmarked) [Example 199] |
| 0.4 | COC(=O)NCCCn1nc([C@@H](C)N(C(=O)[C@H]2CNCCO2)C2CC2)cc1-c1cccc(C)n1 [Example 176] |
| 0.6 | COC(=O)NCCCn1cc([C@@H](C)N(C(=O)[C@H]2CNCCO2)C2CC2)nc1-c1ccc(C(F)(F)F)cc1 [Example 164] |
| 1.5 | COC(=O)NCCCc1sc([C@@H](C)N(C(=O)[C@H]2CNCCO2)C2CC2)nc1-c1ccccc1 [Example 206] |
| 1.1 | COC(=O)NCCCc1cc([C@@H](C)N(C(=O)[C@H]2CNCCO2)C2CC2)sc1-c1ccccc1O [Example 264] |
| 0.6 | COC[C@@H]1CNC[C@H](C(=O)N(C2CC2)[C@H](C)c2cc(CCCNC(=O)OC)nc(C(F)(F)F)c2)O1 [Example 324] |
| 0.2 | COC(=O)NCCCc1cc([C@@H](C)N(C(=O)[C@H]2CNCCO2)C2CC2)sc1-c1cccc(-c2nnn[nH]2)c1 [Example 263] |
| 0.1 | COC(=O)NCCCc1cc([C@@H](C)N(C(=O)[C@H]2CNCCO2)C2CC2)sc1-c1ccc(F)cn1 [Example 235] |
| 1.2 | COC(=O)NCCCn1nc([C@@H](C)N(C(=O)[C@H]2CN[C@@H](CC(F)F)CO2)C2CC2)c2ccc(C)nc21 [Example 305] |
| 0.9 | COC(=O)NCCCn1nc([C@@H](C)N(C(=O)[C@H]2CNCCO2)C2CC2)nc1-c1ccccc1C [Example 248] |
| 2 | COC(=O)NCCCc1sc(C(C)N(C(=O)[C@H]2CNCCO2)C2CC2)cc1-c1ccnn1C (some centres unmarked) [Example 429] |
| 1.5 | COC[C@H]1CO[C@@H](C(=O)N(C2CC2)[C@@H](C)c2cn(CCCNC(=O)OC)c(C3CCOCC3)n2)CN1 [Example 322] |
| 1.5 | CCc1cn(CCCOC)c2cc([C@@H](C)N(C(=O)[C@H]3CNCCO3)C3CC3)nc(Cl)c12 [Example 130] |
| 0.8 | COC(=O)NCCCc1cc([C@@H](C)N(C(=O)[C@H]2CN[C@@H](C)CO2)C2CC2)nn1-c1ccccc1 [Example 355] |
| 1 | COC(=O)NCCCc1cc([C@@H](C)N(C(=O)[C@H]2CNCCO2)C2CC2)nc2ccc(C#N)cc12 [Example 146] |
| 0.5 | COC(=O)NCCCn1nc([C@@H](C)N(C(=O)[C@H]2CNCCO2)C2CC2)cc1-c1ccc(C)cn1 [Example 184] |
| 0.7 | COC(=O)NCCCc1cc([C@H](C)N(C(=O)[C@H]2CNC[C@@H](CF)O2)C2CC2)nn1C1CCOCC1 [Example 340] |
| 0.8 | CCc1nc([C@@H](C)N(C(=O)[C@H]2CNCCO2)C2CC2)cc2c1c(F)cn2CCCOC [Example 155] |

| IC50 [nM] | SMILES |
| --- | --- |
| 0.7 | COC(=O)NCCCc1cc([C@@H](C)N(C(=O)[C@H]2CNCCO2)C2CC2)cc(C(F)(F)F)n1 [Example 325] |
| 1.7 | COC(=O)NCCCc1cc([C@@H](C)N(C(=O)[C@H]2CN[C@@H](C)CO2)C2CC2)nn1-c1cccc(F)c1 [Example 370] |
| 0.5 | COC(=O)NCCCn1nc([C@@H](C)N(C(=O)[C@H]2CNCCO2)C2CC2)cc1-c1ncccc1C [Example 187] |
| 2 | COC(=O)NCCCc1nc([C@@H](C)N(C(=O)[C@H]2CNCCO2)C2CC2)sc1-c1cnn(C)c1 [Example 413] |
| 0.2 | COC(=O)NCCCc1cc([C@@H](C)N(C(=O)[C@H]2CNCCO2)C2CC2)sc1-c1ccccc1 [Example 197] |
| 0.3 | COC(=O)NCCCn1nc([C@@H](C)N(C(=O)[C@H]2CNCCO2)C2CC2)c2c1C(C)(C)CC2 [Example 233] |
| 1.5 | CCc1c([C@@H](C)N(C(=O)[C@H]2CNCCO2)C2CC2)nn(CCCNC(=O)OC)c1-c1ccccn1 [Example 217] |
| 0.9 | COC(=O)NCCCn1cc([C@H](C)N(C(=O)[C@H]2CN[C@@H](C)CO2)C2CC2)nc1C1CCCCC1 [Example 335] |
| 2 | COC[C@H]1CO[C@@H](C(=O)N(C2CC2)[C@@H](C)c2cc(C3CCOCC3)n(CCCNC(=O)OC)n2)CN1 [Example 323] |
| 0.3 | COC(=O)NCCCn1nc([C@@H](C)N(C(=O)[C@H]2CNCCO2)C2CC2)cc1-c1ncccc1F [Example 185] |
| 0.6 | COCCCCc1cc([C@@H](C)N(C(=O)[C@H]2CNCCO2)C2CC2)nn1-c1ccccc1 [Example 232] |
| 0.4 | COC(=O)NCCCn1cc([C@@H](C)N(C(=O)[C@H]2CN[C@@H](C)CO2)C2CC2)nc1-c1ccccc1 [Example 353] |
| 1.1 | CCc1cn(CCCOC)c2cc([C@@H](C)N(C(=O)[C@H]3CNCCO3)C3CC3)nc(CC)c12 [Example 152] |
| 1.4 | COC(=O)NCCCc1cc([C@H](C)N(C(=O)[C@H]2CNC[C@@H](CC#N)O2)C2CC2)cc(OC)n1 [Example 316] |
| 0.4 | COC(=O)NCCCn1cc([C@@H](C)N(C(=O)[C@H]2CNCCO2)C2CC2)nc1-c1ccc(Cl)cc1 [Example 170] |
| 0.5 | COC(=O)NCCCc1cc([C@@H](C)N(C(=O)[C@H]2CNCCO2)C2CC2)nc2ccc(OC)cc12 [Example 141] |
| 0.4 | COC(=O)NCCCn1cc([C@@H](C)N(C(=O)[C@H]2CNCCO2)C2CC2)nc1-c1ccc(F)cc1 [Example 171] |
| 0.4 | COC(=O)NCCCc1cc([C@@H](C)N(C(=O)[C@H]2CNCCO2)C2CC2)sc1-c1ccccc1-c1cc(O)no1 [Example 281] |
| 0.5 | COC[C@H]1CO[C@@H](C(=O)N(C2CC2)[C@H](C)c2cn(CCCNC(=O)OC)c(-c3ccc(F)cc3)n2)CN1 [Example 279] |
